Data as given in patent US20080064034A1, “Multi-Cellular Test Systems” (FRAUNHOFER-GESELLSCHAFT ZUR FÖRDERUNG DER ANGEWAND, priority 2004, published 2008).

Test system: organoid bodies
Experiment: Western blot of the liver protein α-fetoprotein in homogenates of organoid bodies incubated with HGF
Assay type: cell-based
Conditions: 40 ng/ml HGF
Protocol: In this example organoid bodies were exposed for a time period of 1 to 2 days to different micromolar concentrations of puromycin, an active substance that inhibits translation. Then, the size of the treated organoid bodies was compared with those of an untreated control (see comparative micrograph in FIG. 5A). In a second detection method the organoids were taken up in 10 ml lysis buffer containing 7.5 ml PBS, 2.5 ml NP-40 and 1 mM PEFA block, stored overnight in a refrigerator at 4° C. and then homogenized in minihomogenizers for Eppendorf tubes. The homogenate was centrifuged, the supernatant removed and resolved electrophoretically according to standard methods and the gel subjected to a Western immunoblot. […] The first four bands are produced by the different active amounts of puromycin, the last two show the amount of vigilin in the untreated organoids; the same amount of total protein was always applied per track.
The organoid bodies were incubated with 40 ng/ml HGF (hepatocyte growth factor) or without HFG for 7, 11 14 and 17 days. Then, the organoid bodies were homogenized as described in example 7 and subjected to a Western blot assay. The production of the liver protein α-fetoprotein was examined (FIG. 7).

HGF: hepatocyte growth factor, a differentiation factor for increased formation of cardiac and liver cells
production of the liver protein α-fetoprotein (after 7 and 11 days of incubation): distinct synthesis of the fetoprotein can be observed | production of the liver protein α-fetoprotein (longer exposure time (14 and 17 days)): tends to inhibit the production again
